Assay [1] has as its target 5-hydroxytryptamine receptor 2A (Rattus norvegicus, UniProt P14842).
The target of assay [2] is Norepinephrine transporter (Rattus norvegicus, UniProt Q9JIA2).
Assay [3] concerns the target T1, Muscarinic acetylcholine receptor M2 (Rattus norvegicus, UniProt P10980).
T1 sequence (P10980 whole entry): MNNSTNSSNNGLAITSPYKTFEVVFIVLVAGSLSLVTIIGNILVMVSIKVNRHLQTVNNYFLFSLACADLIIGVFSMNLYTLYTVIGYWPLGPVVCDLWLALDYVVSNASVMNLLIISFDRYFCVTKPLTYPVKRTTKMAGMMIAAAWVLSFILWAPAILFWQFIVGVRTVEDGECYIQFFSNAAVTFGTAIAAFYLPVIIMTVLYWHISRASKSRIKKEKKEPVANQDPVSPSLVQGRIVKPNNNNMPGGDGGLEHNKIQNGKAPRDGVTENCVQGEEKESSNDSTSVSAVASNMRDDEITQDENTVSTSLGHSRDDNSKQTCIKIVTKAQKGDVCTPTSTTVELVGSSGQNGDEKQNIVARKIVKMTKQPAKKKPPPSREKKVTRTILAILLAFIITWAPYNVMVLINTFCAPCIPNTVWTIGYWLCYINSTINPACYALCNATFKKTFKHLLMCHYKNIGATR

In the next assay the target is D(2) dopamine receptor (Rattus norvegicus, UniProt P61169).
For assay [4], the target named is T2, Alpha-1A adrenergic receptor (Rattus norvegicus, UniProt P43140).
T2 sequence (P43140 whole entry): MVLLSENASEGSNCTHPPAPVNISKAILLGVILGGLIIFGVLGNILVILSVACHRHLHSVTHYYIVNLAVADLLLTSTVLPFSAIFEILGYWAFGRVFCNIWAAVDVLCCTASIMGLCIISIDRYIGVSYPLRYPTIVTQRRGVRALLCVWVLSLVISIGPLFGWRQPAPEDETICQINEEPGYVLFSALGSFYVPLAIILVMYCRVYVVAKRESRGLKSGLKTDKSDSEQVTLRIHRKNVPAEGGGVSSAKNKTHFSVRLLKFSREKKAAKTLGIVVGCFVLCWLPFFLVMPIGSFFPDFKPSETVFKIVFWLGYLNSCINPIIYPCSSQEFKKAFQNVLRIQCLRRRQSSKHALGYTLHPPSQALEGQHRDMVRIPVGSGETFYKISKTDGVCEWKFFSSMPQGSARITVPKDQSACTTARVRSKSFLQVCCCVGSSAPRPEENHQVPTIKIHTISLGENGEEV

Assay [5] addresses Sodium-dependent serotonin transporter (Rattus norvegicus, UniProt P31652).

Counter-ions that a name gives are not always drawn. Bounds are passed on as bounds.

This note sets out measurements from BindingDB's records for doi:10.1111/j.1471-4159.1985.tb08803.x (Lundbeck Ais, 1985).

D(2) dopamine receptor, sequence (P61169 whole entry): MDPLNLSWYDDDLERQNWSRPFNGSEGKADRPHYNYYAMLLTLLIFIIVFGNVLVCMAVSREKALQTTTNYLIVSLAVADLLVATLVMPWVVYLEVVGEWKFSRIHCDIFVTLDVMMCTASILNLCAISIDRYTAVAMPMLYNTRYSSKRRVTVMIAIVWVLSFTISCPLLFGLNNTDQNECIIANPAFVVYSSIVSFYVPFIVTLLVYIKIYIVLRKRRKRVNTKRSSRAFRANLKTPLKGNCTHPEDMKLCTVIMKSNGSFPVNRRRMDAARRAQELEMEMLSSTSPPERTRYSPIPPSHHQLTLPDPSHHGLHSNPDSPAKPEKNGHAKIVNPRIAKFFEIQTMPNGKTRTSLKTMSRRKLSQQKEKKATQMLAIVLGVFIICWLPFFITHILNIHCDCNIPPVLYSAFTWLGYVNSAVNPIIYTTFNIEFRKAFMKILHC
5-hydroxytryptamine receptor 2A, sequence (P14842 whole entry): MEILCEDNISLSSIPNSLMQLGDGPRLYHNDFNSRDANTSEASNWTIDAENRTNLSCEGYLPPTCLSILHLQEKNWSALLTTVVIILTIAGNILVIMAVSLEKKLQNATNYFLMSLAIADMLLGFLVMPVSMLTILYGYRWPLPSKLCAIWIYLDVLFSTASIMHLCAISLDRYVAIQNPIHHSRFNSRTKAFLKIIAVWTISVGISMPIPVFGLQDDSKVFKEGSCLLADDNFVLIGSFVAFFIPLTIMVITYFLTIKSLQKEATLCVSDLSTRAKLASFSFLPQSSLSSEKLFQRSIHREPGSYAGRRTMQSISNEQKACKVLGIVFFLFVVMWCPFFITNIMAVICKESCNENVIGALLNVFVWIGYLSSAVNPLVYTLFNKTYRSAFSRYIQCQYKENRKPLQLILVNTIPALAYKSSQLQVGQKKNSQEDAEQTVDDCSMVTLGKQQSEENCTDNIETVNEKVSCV
Sodium-dependent serotonin transporter, sequence (P31652 whole entry): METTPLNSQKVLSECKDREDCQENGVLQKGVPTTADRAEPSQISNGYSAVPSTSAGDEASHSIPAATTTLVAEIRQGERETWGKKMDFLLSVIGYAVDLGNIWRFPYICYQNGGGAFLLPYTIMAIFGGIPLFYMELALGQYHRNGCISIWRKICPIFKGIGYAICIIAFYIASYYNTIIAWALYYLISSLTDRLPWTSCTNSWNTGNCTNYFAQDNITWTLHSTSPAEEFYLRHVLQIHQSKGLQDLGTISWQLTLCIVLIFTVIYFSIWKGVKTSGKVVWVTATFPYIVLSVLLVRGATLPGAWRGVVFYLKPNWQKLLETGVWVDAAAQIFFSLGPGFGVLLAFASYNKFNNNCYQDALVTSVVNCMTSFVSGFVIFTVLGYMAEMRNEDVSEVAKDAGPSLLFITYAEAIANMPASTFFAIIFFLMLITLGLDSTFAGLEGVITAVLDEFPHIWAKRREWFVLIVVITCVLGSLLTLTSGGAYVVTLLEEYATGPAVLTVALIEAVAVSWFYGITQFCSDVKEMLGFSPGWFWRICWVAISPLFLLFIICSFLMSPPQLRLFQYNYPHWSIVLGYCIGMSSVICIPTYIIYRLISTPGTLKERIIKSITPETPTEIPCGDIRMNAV

The Ki is a measure of affinity in units of concentration, obtained from inhibition or displacement. Low readings indicate tighter binding, high ones weaker binding. Regarding `Fc1ccc(C(OCCN2CCN(C/C=C/c3ccccc3)CC2)c2ccc(F)cc2)cc1`, the Ki in assay [1] was 3400 nM; in assay [2], 13 nM; in assay [3], 2200 nM; at D(2) dopamine receptor, 810 nM; in assay [4], 2200 nM.

`COc1ccc2c(c1)CN(C)CC2c1ccc(Cl)c(Cl)c1` (stereo unspecified): the Ki in assay [1] was 550 nM; in assay [2], 2.3 nM; in assay [3], 3700 nM; on D(2) dopamine receptor, more than 10000 nM; in assay [4], 480 nM.

Turning to `CN(C)C[C@@H]1C2CCC(CC2)[C@@H]1c1ccc(Cl)c(Cl)c1`, the Ki in assay [1] is more than 10000 nM; in assay [2], 5.4 nM; in assay [3] it was more than 10000 nM; on D(2) dopamine receptor, 570 nM; in assay [5], 51 nM; in assay [4], more than 10000 nM.

As to `CNCCC(Oc1ccccc1OC)c1ccccc1` (stereo unspecified) [3-(2-methoxyphenoxy)-N-methyl-3-phenylpropan-1-amine], the Ki in assay [1] is 620 nM; in assay [3], 5000 nM; on D(2) dopamine receptor, more than 10000 nM; in assay [4] it was 4300 nM.

Turning to `CN1Cc2c(N)cccc2[C@H](c2ccccc2)C1` [(+/-)-2-Methyl-4-phenyl-1,2,3,4-tetrahydro-isoquinolin-8-ylamine], the Ki in assay [2] was 6.6 nM; in assay [3] it was more than 10000 nM; on D(2) dopamine receptor it was more than 10000 nM; in assay [4], 1200 nM.

As for `CC(NC(C)(C)C)C(=O)c1cccc(Cl)c1` (stereo unspecified) [BUPROPION HYDROCHLORIDE], the Ki was 1500 nM in assay [2], more than 10000 nM in assay [3], more than 10000 nM at D(2) dopamine receptor and more than 10000 nM in assay [4].

For `C(=C\c1ccccc1)/CN1CCN(CCOC(c2ccccc2)c2ccccc2)CC1` [CAS_67469-75-4], the Ki amounted to 1000 nM in assay [1]; 29 nM in assay [2]; 900 nM in assay [3]; 2500 nM at D(2) dopamine receptor; 1900 nM in assay [5]; 270 nM in assay [4].

For the compound `CN[C@H]1C[C@H](c2ccc(Cl)c(Cl)c2)c2ccccc21` [CAS_96850-13-4], the Ki is more than 10000 nM in assay [3], more than 10000 nM at D(2) dopamine receptor and 740 nM in assay [4].

Take `CN(C)CCCC1(c2ccc(F)cc2)OCc2cc(C#N)ccc21` (stereo unspecified) [CITALOPRAM HYDROBROMIDE]: the results for the Ki (in assay [3]; on D(2) dopamine receptor; in assay [4]) were 4800 nM, more than 10000 nM and 1600 nM, respectively.

As to `CNCCCC1(c2ccccc2)SC(C)(C)c2ccccc21` (stereo unspecified) [Talsupram], the inhibition constant Ki in assay [1] is 1600 nM; in assay [2], 0.79 nM; in assay [3] it was 1300 nM; on D(2) dopamine receptor it was more than 10000 nM; in assay [5], 850 nM; in assay [4] it was more than 10000 nM.
